# Assay results taken from patent US20150031668A1, “CHROMAN DERIVATIVES AS TRPM8 INHIBITORS” (AMGEN INC., priority 2013, published 2015).
# Target: T1, human TRPM8 (Homo sapiens, UniProt Q7Z2W7)
# T1 construct: expressed in transfected cells; host or cells: Chinese hamster ovary (CHO) cells, T-REx tetracycline-inducible expression system (Invitrogen); co-transfected with pcDNA3.1 aequorin
# Assay: Luminescence readout assay for measuring intracellular calcium (aequorin, CHO cells expressing human TRPM8; icilin, L-menthol or cold activation)
# Type: cell-based
# Conditions: CHO cells expressing human TRPM8, icilin activation (1 μM), aequorin luminescence; read-out: hTRPM8 IC50
# Method: Luminescence Readout Assay for Measuring Intracellular Calcium
# A stable Chinese hamster ovary cell line expressing human TRPM8 was generated using tetracycline inducible T-REx™ expression system from Invitrogen, Inc. (Carlsbad, Calif.). […] Twenty four hours before the assay, cells were seeded in 96-well plates and TRPM8 expression was induced with 0.5 μg/ml tetracycline. On the day of the assay, culture media was removed and cells were incubated with assay buffer
# Potential antagonists were added 2.5 min prior to the addition of agonist, 1 μM icilin, 100 μM L-menthol, or 1 min prior to the addition of cold buffer (<10° C.). The luminescence was measured by a CCD camera based FLASH-luminometer built by Amgen, Inc. A cooling device attached to FLASH luminometer was used for cold activation.
# T1 sequence (Q7Z2W7 whole entry): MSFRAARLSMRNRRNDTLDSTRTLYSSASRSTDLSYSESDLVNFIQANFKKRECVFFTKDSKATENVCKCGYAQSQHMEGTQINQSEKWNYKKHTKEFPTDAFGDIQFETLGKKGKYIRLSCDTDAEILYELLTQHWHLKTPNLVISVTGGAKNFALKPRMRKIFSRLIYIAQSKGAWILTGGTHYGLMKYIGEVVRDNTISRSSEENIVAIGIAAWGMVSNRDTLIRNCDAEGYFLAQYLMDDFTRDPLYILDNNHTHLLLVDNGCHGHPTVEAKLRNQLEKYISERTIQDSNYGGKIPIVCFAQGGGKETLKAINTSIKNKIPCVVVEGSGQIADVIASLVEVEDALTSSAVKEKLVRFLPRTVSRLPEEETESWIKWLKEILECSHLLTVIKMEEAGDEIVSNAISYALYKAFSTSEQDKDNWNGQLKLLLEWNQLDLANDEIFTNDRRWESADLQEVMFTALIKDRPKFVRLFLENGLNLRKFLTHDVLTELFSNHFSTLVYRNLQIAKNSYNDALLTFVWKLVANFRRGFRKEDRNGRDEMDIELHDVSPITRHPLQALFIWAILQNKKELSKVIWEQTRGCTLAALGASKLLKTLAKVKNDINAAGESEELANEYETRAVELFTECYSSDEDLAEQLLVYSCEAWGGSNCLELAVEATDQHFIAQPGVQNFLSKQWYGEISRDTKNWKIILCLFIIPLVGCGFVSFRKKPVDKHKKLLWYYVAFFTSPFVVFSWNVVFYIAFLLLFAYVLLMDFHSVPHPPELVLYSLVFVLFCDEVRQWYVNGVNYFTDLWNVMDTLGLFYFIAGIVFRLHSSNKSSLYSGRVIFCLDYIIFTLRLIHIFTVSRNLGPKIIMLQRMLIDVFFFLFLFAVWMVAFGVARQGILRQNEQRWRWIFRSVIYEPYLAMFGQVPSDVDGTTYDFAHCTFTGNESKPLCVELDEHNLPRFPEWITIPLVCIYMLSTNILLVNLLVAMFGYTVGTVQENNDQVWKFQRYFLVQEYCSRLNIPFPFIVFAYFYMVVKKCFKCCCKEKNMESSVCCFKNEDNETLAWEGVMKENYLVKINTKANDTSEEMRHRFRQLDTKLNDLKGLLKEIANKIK
row,SMILES,IC50
1,"CC(O)c1ccc(C(=O)N[C@]2(c3ccc(OC(F)(F)F)c(F)c3)CCOc3cccnc32)cc1 (mixture of isomers) [Example 157, N—((S)-4-(3-fluoro-4-(trifluoromethoxy)phenyl)-3,4-dihydro-2H-pyrano[3,2-b]pyridin-4-yl)-4-((R)-1-hydroxyethyl)benzamide and N—((S)-4-(3-fluoro-4-(trifluoromethoxy)phenyl)-3,4-dihydro-2H-pyrano[3,2-b]pyridin-4-yl)-4-((S)-1-hydroxyethyl)benzamide (1:1)]",0.012 µM
2,"O=C(N[C@]1(c2ccc(OC(F)(F)F)c(F)c2)CCOc2cccnc21)c1ccc(C(O)C(F)(F)F)cc1 (mixture of isomers) [Example 159, N—((S)-4-(3-fluoro-4-(trifluoromethoxy)phenyl)-3,4-dihydro-2H-pyrano[3,2-b]pyridin-4-yl)-4-((R)-2,2,2-trifluoro-1-hydroxyethyl)benzamide and N—((S)-4-(3-fluoro-4-(trifluoromethoxy)phenyl)-3,4-dihydro-2H-pyrano[3,2-b]pyridin-4-yl)-4-((S)-2,2,2-trifluoro-1-hydroxyethyl)benzamide (1:1)]",0.046 µM
3,"O=C(N[C@]1(c2ccc(C(F)(F)F)cc2)CCOc2cccnc21)c1ccccc1 (single isomer, unassigned) [Example 1]",0.014 µM
4,"O=C(N[C@]1(c2ccc(C(F)(F)F)cc2)CCOc2cccnc21)c1ccc(F)cc1 (single isomer, unassigned) [Example 2]",0.086 µM
5,"O=C(N[C@]1(c2ccc(Cl)c(Cl)c2)CCOc2cccnc21)c1ccccc1 (single isomer, unassigned) [Example 3]",0.025 µM
6,"O=C(N[C@]1(c2ccc(C(F)(F)F)cc2)CCOc2cccnc21)c1ccc(O)cc1 (single isomer, unassigned) [Example 4]",0.009 µM
7,"COc1ccc(C(=O)N[C@]2(c3ccc(C(F)(F)F)cc3)CCOc3cccnc32)cc1 (single isomer, unassigned) [Example 5]",0.021 µM
8,"O=C(N[C@]1(c2ccc(Cl)cc2)CCOc2cccnc21)c1ccccc1 (single isomer, unassigned) [Example 14]",0.091 µM
9,"O=C(N[C@]1(c2ccc(Cl)c(F)c2)CCOc2cccnc21)c1ccccc1 (single isomer, unassigned) [Example 15]",0.054 µM
10,"O=C(N[C@]1(c2ccc(F)cc2)CCOc2cccnc21)c1ccccc1 (single isomer, unassigned) [Example 16]",0.357 µM
11,"O=C(N[C@]1(c2cccc(OC(F)(F)F)c2)CCOc2cccnc21)c1ccccc1 (single isomer, unassigned) [Example 17]",0.06 µM
12,"Cc1ccc([C@@]2(NC(=O)c3ccccc3)CCOc3cccnc32)cc1 (single isomer, unassigned) [Example 18]",0.162 µM
13,"O=C(N[C@]1(c2ccc(C(F)(F)F)c(F)c2)CCOc2cccnc21)c1ccccc1 (single isomer, unassigned) [Example 19]",0.012 µM
14,"O=C(N[C@]1(c2ccc(C(F)(F)F)cc2)CCOc2cccnc21)c1ccc2[nH]c(=O)oc2c1 (single isomer, unassigned) [Example 20]",0.01 µM
15,"O=C(N[C@]1(c2ccc(C(F)(F)F)cc2)CCOc2ccccc21)c1ccccc1 (single isomer, unassigned) [Example 28]",1.66 µM
16,"O=C(NC1(c2ccc(OC(F)(F)F)c(F)c2)CCOc2cccnc21)c1ccc(F)cc1 (stereo not shown) [Example 6, 4-fluoro-N-(4-(3-fluoro-4-(trifluoromethoxy)phenyl)-3,4-dihydro-2H-pyrano[3,2-b]pyridin-4-yl)benzamide]",0.034 µM
17,"O=C(NC1(c2ccc(OC(F)(F)F)c(F)c2)CCOc2cccnc21)c1ccccc1 (stereo not shown) [Example 7, N-(4-(3-fluoro-4-(trifluoromethoxy)phenyl)-3,4-dihydro-2H-pyrano[3,2-b]pyridin-4-yl)benzamide]",0.032 µM
18,"O=C(NC1(c2ccc(OC(F)(F)F)cc2)CCOc2cccnc21)c1ccc(F)cc1 (stereo not shown) [Example 8, 4-fluoro-N-(4-(4-(trifluoromethoxy)phenyl)-3,4-dihydro-2H-pyrano[3,2-b]pyridin-4-yl)benzamide]",0.075 µM
19,"O=C(NC1(c2ccc(OC(F)(F)F)cc2)CCOc2cccnc21)c1ccccc1 (stereo not shown) [Example 9, N-(4-(4-(trifluoromethoxy)phenyl)-3,4-dihydro-2H-pyrano[3,2-b]pyridin-4-yl)benzamide]",0.038 µM

row,SMILES,IC50
1,"O=C(NC1(c2ccc(Cl)c(Cl)c2)CCOc2cccnc21)c1ccc(F)cc1 (stereo not shown) [Example 10, N-(4-(3,4-dichlorophenyl)-3,4-dihydro-2H-pyrano[3,2-b]pyridin-4-yl)-4-fluorobenzamide]",0.163 µM
2,"O=C(NC1(c2ccccc2)CCOc2cccnc21)c1ccc(F)cc1 (stereo not shown) [Example 11, 4-fluoro-N-(4-phenyl-3,4-dihydro-2H-pyrano[3,2-b]pyridin-4-yl)benzamide]",2.57 µM
3,"O=C(NC1(c2ccccc2)CCOc2cccnc21)c1ccccc1 (stereo not shown) [Example 12, N-(4-phenyl-3,4-dihydro-2H-pyrano[3,2-b]pyridin-4-yl)benzamide]",2.07 µM
4,"O=C(NC1(c2ccc(C(F)(F)F)nc2)CCOc2cccnc21)c1ccccc1 (stereo not shown) [Example 13, N-(4-(6-(trifluoromethyl)pyridin-3-yl)-3,4-dihydro-2H-pyrano[3,2-b]pyridin-4-yl)benzamide]",0.883 µM
5,"O=C(NC1(c2ccc(OC(F)(F)F)cc2)CCOc2cccnc21)c1ccc2[nH]c(=O)oc2c1 (stereo not shown) [Example 22, 2-oxo-N-(4-(4-(trifluoromethoxy)phenyl)-3,4-dihydro-2H-pyrano[3,2-b]pyridin-4-yl)-2,3-dihydrobenzo[d]oxazole-6-carboxamide]",0.014 µM
6,"O=C(NC1(c2ccc(OC(F)(F)F)cc2)CCOc2cccnc21)c1ccc2oc(=O)[nH]c2c1 (stereo not shown) [Example 23, 2-oxo-N-(4-(4-(trifluoromethoxy)phenyl)-3,4-dihydro-2H-pyrano[3,2-b]pyridin-4-yl)-2,3-dihydrobenzo[d]oxazole-5-carboxamide]",0.012 µM
7,"O=C(NC1(c2ccc(Cl)c(Cl)c2)CCOc2cccnc21)c1ccc2[nH]c(=O)oc2c1 (stereo not shown) [Example 24, N-(4-(3,4-dichlorophenyl)-3,4-dihydro-2H-pyrano[3,2-b]pyridin-4-yl)-2-oxo-2,3-dihydrobenzo[d]oxazole-6-carboxamide]",0.023 µM
8,"O=C(NC1(c2ccc(Cl)c(Cl)c2)CCOc2cccnc21)c1ccc2oc(=O)[nH]c2c1 (stereo not shown) [Example 25, N-(4-(3,4-dichlorophenyl)-3,4-dihydro-2H-pyrano[3,2-b]pyridin-4-yl)-2-oxo-2,3-dihydrobenzo[d]oxazole-5-carboxamide]",0.019 µM
9,"O=C(NC1(c2ccccc2)CCOc2cccnc21)c1ccc2[nH]c(=O)oc2c1 (stereo not shown) [Example 26, 2-oxo-N-(4-phenyl-3,4-dihydro-2H-pyrano[3,2-b]pyridin-4-yl)-2,3-dihydrobenzo[d]oxazole-6-carboxamide]",0.014 µM
10,"O=C(NC1(c2ccc(C(F)(F)F)nc2)CCOc2cccnc21)c1ccc2oc(=O)[nH]c2c1 (stereo not shown) [Example 27, 2-oxo-N-(4-(6-(trifluoromethyl)pyridin-3-yl)-3,4-dihydro-2H-pyrano[3,2-b]pyridin-4-yl)-2,3-dihydrobenzo[d]oxazole-5-carboxamide]",0.046 µM
11,"O=C(NC1(c2ccc(C(F)(F)F)cc2)CCCc2cccnc21)c1ccccc1 (stereo not shown) [Example 29, N-(8-(4-(trifluoromethyl)phenyl)-5,6,7,8-tetrahydroquinolin-8-yl)benzamide]",0.143 µM
12,"COC(=O)c1ccc(C(=O)NC2(c3ccc(OC(F)(F)F)c(F)c3)CCOc3cccnc32)nc1 (stereo not shown) [Example 30, methyl 6-((4-(3-fluoro-4-(trifluoromethoxy)phenyl)-3,4-dihydro-2H-pyrano[3,2-b]pyridin-4-yl)carbamoyl)nicotinate]",0.019 µM
13,"O=C(NC1(c2ccc(C(F)(F)F)cc2)CCCc2cccnc21)c1ccc(=O)[nH]c1 (stereo not shown) [Example 31, 6-oxo-N-(8-(4-(trifluoromethyl)phenyl)-5,6,7,8-tetrahydroquinolin-8-yl)-1,6-dihydropyridine-3-carboxamide]",0.784 µM
14,"COc1ccc(C(=O)N[C@]2(c3ccc(C(F)(F)F)cc3)CCOc3cccnc32)cn1 [Example 32, (S)-6-methoxy-N-(4-(4-(trifluoromethyl)phenyl)-3,4-dihydro-2H-pyrano[3,2-b]pyridin-4-yl)nicotinamide]",0.051 µM
15,"O=C1CCc2cc(C(=O)N[C@]3(c4ccc(C(F)(F)F)cc4)CCOc4cccnc43)ccc2N1 [Example 33, (S)-2-oxo-N-(4-(4-(trifluoromethyl)phenyl)-3,4-dihydro-2H-pyrano[3,2-b]pyridin-4-yl)-1,2,3,4-tetrahydroquinoline-6-carboxamide]",0.005 µM
16,"O=C(N[C@]1(c2ccc(C(F)(F)F)cc2)CCOc2cccnc21)c1ccc2cn[nH]c2c1 [Example 34, (S)-N-(4-(4-(trifluoromethyl)phenyl)-3,4-dihydro-2H-pyrano[3,2-b]pyridin-4-yl)-1H-indazole-6-carboxamide]",0.024 µM
17,"O=C(N[C@]1(c2ccc(C(F)(F)F)cc2)CCOc2cccnc21)c1ccncn1 [Example 35, (S)-N-(4-(4-(trifluoromethyl)phenyl)-3,4-dihydro-2H-pyrano[3,2-b]pyridin-4-yl)pyrimidine-4-carboxamide]",0.2 µM
18,"O=C(N[C@]1(c2ccc(C(F)(F)F)cc2)CCOc2cccnc21)c1ccc2cc[nH]c2c1 [Example 36, (S)-N-(4-(4-(trifluoromethyl)phenyl)-3,4-dihydro-2H-pyrano[3,2-b]pyridin-4-yl)-1H-indole-6-carboxamide]",0.036 µM
